Here are results for 18 molecules from US5098920A, “1H-substituted-1,2,4-triazole compounds and methods of use thereof for treatment of cardiovascular disorders” (G. D. Searle & Co., priority 1990, dated 1992).

Test [1] addresses smooth muscle angiotensin II receptor. Put plainly: Assay A: Angiotensin II Binding Activity (displacement of 125I-AII, rat uterine membrane preparation). The conditions noted are these: 50% displacement of specifically bound 125I-AII; rat uterine membranes; 25° C., 60 min. Here is the method: Assay A: Angiotensin II Binding Activity
Compounds of the invention were tested for ability to bind to the smooth muscle angiotensin II receptor using a rat uterine membrane preparation. […] Other chemicals were obtained from Sigma Chemical Co. This assay was carried out according to the method of Douglas et al [Endocrinology, 106, 120-124 (1980)]. Rat uterine membranes were prepared from fresh tissue. All procedures were carried out at 4° C. Uteri were stripped of fat and homogenized in phosphate-buffered saline at pH 7.4 containing 5 mM EDTA. The homogenate was centrifuged at 1500×g for 20 min., and the supernatant was recentrifuged at 100,000×g for 60 min. The pellet was resuspended in buffer consisting of 2 mM EDTA and 50 mM Tris-HCl (pH 7.5) to a final protein concentration of 4 mg/ml. […] The reaction was initiated by the addition of membrane protein and the mixture was incubated at 25° C. for 60 min. The incubation was terminated with ice-cold 50 mM Tris-HCl (pH 7.5) and the mixture was filtered to separate membrane-bound labelled peptide from the free ligand. The incubation tube and filter were washed with ice-cold buffer. Filters were assayed for radioactivity in a Micromedic gamma counter. Nonspecific binding was defined as binding in the presence of 10 μM of unlabelled AII. Specific binding was calculated as total binding minus nonspecific binding. […] Binding data were aralyzed by a nonlinear least-squares curve fitting program.
(Loss of bound radioactivity is the signal in a displacement assay; it reports binding, not function.)

The test system of test [2] is rabbit aortic rings. Put plainly: Assay B: In Vitro Vascular Smooth Muscle-Response for AII (antagonist activity in rabbit aortic rings). The test is classed as cell-based, rabbit (male New Zealand white). The conditions noted are these: Oryctolagus cuniculus, rabbit aorta rings, antagonist at 10^-5 M, read-out: PA2 (converted). Here is the method:
Assay B: In Vitro Vascular Smooth Muscle-Response for AII The compounds of the invention were tested for antagonist activity in rabbit aortic rings. Male New Zealand white rabbits (2-2.5 kg) were sacrificed using an overdose of pentobarbital and exsanguinated via the carotid arteries. The thoracic aorta was removed, cleaned of adherent fat and connective tissue and then cut into 3-mm ring segments. The endothelium was removed from the rings by gently sliding a rolled-up piece of filter paper into the vessel lumen. The rings were then mounted in a water-jacketed tissue bath, maintained at 37° C., between moveable and fixed ends of a stainless steel wire with the moveable end attached to an FTO3 Grass transducer coupled to a Model 7D Grass Polygraph for recording isometric force responses. […] The preparations were equilibrated for one hour before approximately one gram of passive tension was placed on the rings. Angiotensin II concentration-response curves were then recorded (3×10^-10 to 1×10^-5 M). Each concentration of AII was allowed to elicit its maximal contraction, and then AII was washed out repeatedly for 30 minutes before rechallenging with a higher concentration of AII. Aorta rings were exposed to the test antagonist at 10^-5 M for 5 minutes before challenging with AII. Adjacent segments of the same aorta ring were used for all concentration-response curves in the presence or absence of the test antagonist. The effectiveness of the test compound was expressed in terms of pA2 values and were calculated according to H. O. Schild [Br. J. Pharmacol. Chemother., 2, 189-206 (1947)]. […] Each test antagonist was evaluated in aorta rings from two rabbits.

Test [3] deals with AII pressor response. Put plainly: Assay C: In Vivo Intraduodenal Pressor Assay Response for AII Antagonists. On the set-up: species or system rat (male Sprague-Dawley). The following applies: rats; for Inhibition: percent inhibition of AII (30 ng/kg i.v.) pressor response; for Duration: time from peak percent inhibition to 50% of peak. Here is the method: Assay C: In Vivo Intraduodenal Pressor Assay Response for AII Antagonists
Male Sprague-Dawley rats weighing 225-300 grams were anesthetized with Inactin (100 mg/kg, i.p.) and catheters were implanted into the trachea, femoral artery, femoral vein and duodenum. Arterial pressure was recorded from the femoral artery catheter on a Gould chart recorder (Gould, Cleveland, Ohio). The fe:moral vein catheter was used for injections of angiotensin II, mecamylamine and atropine. The tracheal cathete'r allows for airway patency, and the duodenal catheter was used for intraduodenal (i.d.) administration of test compounds. After surgery, the rats were allowed to equilibrate for 30 minutes. Mecamylamine (3 mg/kg, 0.3 ml/kg) and atropine (400 ug/kg, 0.3 ml/kg) were then given i.v. to produce ganglion blockade. These compounds were administered every 90 minutes throughout the test procedure. Angiotensin II was given in bolus does i.v. (30 ng/kg in saline with 0.5% bovine serum albumin, 0.1 ml/kg) every 10 minutes three times or until the increase in arterial pressure produced was within 3 mmHg for two consecutive AII injections. The last two AII injections were averaged and were taken as the control AII pressor response. Ten minutes after the final control AII injection, the test compound (dissolved in sodium bicarbonate) was administered i.d. at a dose of 30 or 100 mg/kg in a volume of 0.2 ml. Angiotensin II injections were then given 5, 10, 20, 30, 45, 60, 75, 90, and 120 minutes after administration of the test compound and response of arterial pressure was monitored. The response to AII was calculated as percent of the control response and then the percent inhibition is calculated as 100 minus the percent control response. Duration of action of a test compound was defined as the time from peak percent inhibition to 50% of peak. One compound at one dose was tested in each rat. Each test compound was tested in two rats and the values for the two rats were averaged.

Test [4] deals with angiotensin II receptor. The following applies: cited from earlier work; for angiotensin II antagonist activity: binding experiments, functional assays and in vivo tests, literature.
Where [5] appears, read: only printed value, or first of two printed values.

Molecules are shown by their SMILES. Like-named read-outs stand apart in the source and are kept apart here.

As a reminder, the IC50 is the point on the concentration scale where inhibition reaches its midpoint. Read a low IC50 as higher potency. As to `CCCCc1nc(CCC)nn1Cc1ccc(-c2ccccc2-c2nnn[nH]2)cc1` [Example 14, 5-[4'-[(5-butyl-3-propyl-1H-1,2,4-triazol-1-yl)methyl]-[1,1'-biphenyl]-2-yl]-1H-tetrazole], the IC50 in test [1] was 7.2 nM. In addition, the Kb in test [2] (setting [5]) is 1.45 nM; in test [2] (second of two values), 1.95 nM.

Regarding `CCCCCc1nc(CCCCC)n(Cc2ccc(-c3ccccc3-c3nnn[nH]3)cc2)n1` [Example 13, 5-[4'-[(3,5-dipentyl-1H-1,2,4-triazol-1-yl)methyl][1,1'-biphenyl]-2-yl]-1H-tetrazole], the Kb in test [2] (setting [5]) is 2 nM; in test [2] (second of two values), 1.41 nM.

In general, Inhibition refers to the drop in the measured response relative to a control, in per cent. Low values mean a weak effect, high ones a strong effect. Molecule `CCCCc1nc(CCCC)n(Cc2ccc(-c3ccccc3-c3nnn[nH]3)cc2)n1` [Example 3, 5-[4'-[(3,5-dibutyl-1H-1,2,4-triazol-1-yl)methyl][1,1'-biphenyl]2-yl]-1H-tetrazole] showed a concentration for half-maximal inhibition (IC50) in test [1] of 5.4 nM. For the same molecule, the Kb in test [2] (setting [5]) is 2 nM. In test [3] (30 mg/kg i.d.), this molecule came in with an Inhibition of 100% and a Duration of no less than 200 min.

`CCCCc1nc(CCC(C)C)nn1Cc1ccc(-c2ccccc2-c2nnn[nH]2)cc1` [Example 17, 5-[4'-[(5-butyl-3-isopentyl-1H-1,2,4-triazol-1-yl]methyl)[1,1'-biphenyl]-2-yl]-1H-tetrazole]: the 50% inhibitory concentration (IC50) in test [1] was 4 nM. Further, the Kb in test [2] (setting [5]) was 2.29 nM; in test [2] (second of two values), 3.98 nM.

Turning to `CCCc1nc(CCC)n(Cc2ccc(-c3ccccc3-c3nnn[nH]3)cc2)n1` [Example 12, 5-[4'-[(3,5-dipropyl-1H-1,2,4-triazol-1-yl)methyl][1,1'-biphenyl]-2-yl]-1H-tetrazole], the IC50 in test [1] was determined as 6 nM. In addition, the Kb in test [2] (setting [5]) is 2.19 nM; in test [2] (second of two values) it was 2.57 nM.

Regarding `CCCCc1nc(CCC)n(Cc2ccc(-c3ccccc3-c3nnn[nH]3)cc2)n1` [Example 15, 5-[4'-[(3-butyl-5-propyl-1H-1,2,4-triazol-1-yl)methyl]-[1,1'-biphenyl]-2-yl]-1H-tetrazole], the IC50 in test [1] was 16 nM. In addition, the values for the Kb in test [2] (setting [5]) and in test [2] (second of two values) were 4.9 nM and 5.01 nM, respectively.

In the case of `CCCCc1nc(CCCC)n(Cc2ccc(-c3ccccc3C(=O)NNS(=O)(=O)C(F)(F)F)cc2)n1` [Example 5, 4'-[(3,5-dibutyl-1H-1,2,4-triazol-1-yl)methyl][1,1'-biphenyl]-2-carboxylicacid, 2-[(trifluoromethyl)sulfonyl]hydrazide], the IC50 in test [1] turned out to be 200 nM. Further, the Kb in test [2] (setting [5]) was 63.1 nM. For the same molecule, in test [3] (100 mg/kg i.d.), the Inhibition was 38% and the Duration lay in the range of 20 to 30 min.

Turning to `CNCC(=O)N[C@@H](CCCN=C(N)N)C(=O)N[C@H](C(=O)N[C@@H](Cc1ccc(O)cc1)C(=O)N[C@H](C(=O)N[C@@H](Cc1cnc[nH]1)C(=O)N1CCC[C@H]1C(=O)N[C@@H](C)C(=O)O)C(C)C)C(C)C` [Saralasin], the residual agonist activity result in test [4] (background statement) is “significant residual agonist activity”.

As for `CCCCc1nc(Cl)c(CC(=O)O)n1Cc1ccccc1Cl` [2-n-butyl-4-chloro-1-(2-chlorobenzyl)imidazole-5-acetic acid], the “angiotensin II antagonist activity” value in test [4] is listed as “specific competitive angiotensin II antagonist activity”.

As to `CCCCc1nc(Cl)nn1Cc1ccc(-c2ccccc2C(=O)O)cc1` [Example 6, 4'-[(5-butyl-3-chloro-1H-1,2,4-triazol-1-yl)methyl][1,1'-biphenyl]-2-carboxylic acid], in test [2] (setting [5]), the Kb is 204 nM. In test [3] (100 mg/kg i.d.), this molecule had an Inhibition of 90% and a Duration of 120 min.

In test [1], `CCCCc1nc(Cl)n(Cc2ccc(-c3ccccc3C(=O)O)cc2)n1` [Example 8, 4'-[(3-butyl-5-chloro-1H-1,2,4-triazol-1-yl)methyl][1,1'-biphenyl]-2-carboxylic acid] returned an IC50 of 1700 nM.

With `CCCCc1nc(Cl)nn1Cc1ccc(-c2ccccc2-c2nnn[nH]2)cc1` [Example 7], in test [1], the IC50 was 84 nM. In addition, in test [2] (setting [5]), the Kb is 9.33 nM.

In the case of `CCCCc1nc(C(F)(F)CCC)n(Cc2ccc(-c3ccccc3-c3nnn[nH]3)cc2)n1` [Example 11, 5-[4'-[[3-butyl-5-(1,1-difluorobutyl)-1H-1,2,4-triazol-1-yl]methyl][1,1'-biphenyl]-2-yl]-1H-tetrazole], the IC50 in test [1] was determined as 160 nM. Also, the figures for the Kb in test [2] (setting [5]) and in test [2] (second of two values) were 355 nM and 170 nM, respectively.

Molecule `CCCCc1nc(Cl)n(Cc2ccc(-c3ccccc3-c3nnn[nH]3)cc2)n1` [Example 9] yielded a half-maximal inhibitory concentration (IC50) in test [1] of 700 nM. The Kb in test [2] (setting [5]) was 40.7 nM. Further, in test [3] (30 mg/kg i.d.), the Inhibition amounted to 100% and the Duration stood at 230 min.

Molecule `CCCCc1nc(C(F)(F)CCC)nn1Cc1ccc(-c2ccccc2-c2nnn[nH]2)cc1` [Example 10, 5-[4'-[[5-butyl-3-(1,1-difluorobutyl)-1H-1,2,4-triazol-1-yl]methyl][1,1'-biphenyl]-2-yl]-1H-tetrazole] yielded an IC50 in test [1] of 4.9 nM. Also, the Kb in test [2] (setting [5]) is 6.46 nM; in test [2] (second of two values) it was 25.7 nM. The molecule also yielded an Inhibition in test [3] (30 mg/kg i.d.) of 100%. The Duration in test [3] (30 mg/kg i.d.) is 240 min.

Consider `CCCCc1nc(Cl)c(CC(=O)O)n1Cc1ccccc1[N+](=O)[O-]` [2-butyl-4-chloro-1-(2-nitrobenzyl)imidazole-5-acetic acid], for which the “angiotensin II antagonist activity” value in test [4] is reported as “specific competitive angiotensin II antagonist activity”.

For the molecule `CCCCc1nc(CCCC)n(Cc2ccc(-c3ccccc3C(=O)O)cc2)n1` [Example 2, 4'-[(3,5-dibutyl-1H-1,2.4-triazol-1-yl)methyl][1,1'-biphenyl]-2-carboxylic acid], in test [2] (setting [5]), the Kb is 33.1 nM. This molecule also yielded an Inhibition in test [3] (30 mg/kg i.d.) of 98%.

In test [1], `CCCCc1nc(CCC(C)C)n(Cc2ccc(-c3ccccc3-c3nnn[nH]3)cc2)n1` [Example 16, 5-[4'-[(3-butyl-5-isopentyl-1H-1,2,4-triazol-1-yl)methyl]-[1,1'-biphenyl]-2-yl]-1H-tetrazole] had an IC50 of 6.4 nM. Also, the Kb is 1.12 nM in test [2] (setting [5]) and 0.575 nM in test [2] (second of two values).
